Consider three compounds from patent US20020032226A1, “Novel form of an oxazole compound” (priority 2000, published 2002).

A short description of data set [1]: heat stability to withstand spray drying. The format is physicochemical. To be noted: temperature range of from about 40° C. to about 100° C.
For another data set, the target named is T1, COX-2 (Homo sapiens, UniProt P35354).
T1 sequence (P35354 18-604): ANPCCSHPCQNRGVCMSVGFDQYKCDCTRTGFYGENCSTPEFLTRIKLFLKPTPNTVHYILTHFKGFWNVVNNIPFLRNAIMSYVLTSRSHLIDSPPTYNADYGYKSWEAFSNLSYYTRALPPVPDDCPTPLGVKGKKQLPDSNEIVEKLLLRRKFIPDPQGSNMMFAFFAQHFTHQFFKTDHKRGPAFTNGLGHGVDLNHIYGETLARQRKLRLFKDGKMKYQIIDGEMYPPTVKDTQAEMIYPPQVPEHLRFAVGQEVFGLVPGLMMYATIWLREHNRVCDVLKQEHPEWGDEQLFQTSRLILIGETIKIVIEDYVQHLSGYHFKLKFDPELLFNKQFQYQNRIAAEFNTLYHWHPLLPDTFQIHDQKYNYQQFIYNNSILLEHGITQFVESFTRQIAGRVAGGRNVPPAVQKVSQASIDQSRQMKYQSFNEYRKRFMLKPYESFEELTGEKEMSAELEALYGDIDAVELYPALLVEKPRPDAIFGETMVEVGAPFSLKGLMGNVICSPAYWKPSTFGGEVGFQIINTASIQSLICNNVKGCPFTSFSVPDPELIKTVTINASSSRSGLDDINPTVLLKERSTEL
The data set can be described thus: in vitro activity of COX-2. In kind it is biochemical.

Data set [2] in a line: Comparative dissolution of crystalline Form B and amorphous compound. In kind it is physicochemical. To be noted: 150 mg in 900 mL, 37° C., paddle speed 100 rpm, particle size 212-425 μm, HPLC. Here is the method:
Dissolution rates for the crystalline compound having Form B and the amorphous compound were determined and compared in two media: water and simulated intestinal fluid (SIF) minus pancreatin.
Initial materials were sieved and material with a particle size between 212 and 425 μm was used for the study. A 150 mg sample was added to 900 mL of fluid in a dissolution bath. A temperature of 37° C. and a paddle speed of 100 rpm were used for the dissolution. Samples were pulled at specific time points (5, 15, 30 120, and 240 min) and filtered through a 0.2 μm nylon filter. Samples were analyzed by HPLC.

Each structure is given as a SMILES string.

Turning to `Cc1nc(C2CCCCC2)c(-c2ccc(S(N)(=O)=O)c(F)c2)o1` [5-(4-aminosulfonyl-3-fluorophenyl)-4-cyclohexyl-2-methyloxazole], in data set [1], the heat stability entry is given as “sufficient heat stability”.
Consider `Cc1nc(C2CCCCC2)c(-c2ccc(S(N)(=O)=O)c(F)c2)o1` [amorphous compound, 5-(4-aminosulfonyl-3-fluorophenyl)-4-cyclohexyl-2-methyloxazole], for which the “inhibits in vitro activity of COX-2” value against COX-2 was “nanomolar range”. Besides, in data set [2], the “dissolution rate in simulated intestinal fluid (SIF) minus pancreatin” value is “dissolved more rapidly” and the “dissolution rate in water” value is recorded as “dissolved more rapidly”.
In the case of `Cc1nc(C2CCCCC2)c(-c2ccc(S(N)(=O)=O)c(F)c2)o1` [crystalline compound having Form B, 5-(4-aminosulfonyl-3-fluorophenyl)-4-cyclohexyl-2-methyloxazole], in data set [2], the “dissolution rate in simulated intestinal fluid (SIF) minus pancreatin” value is “significantly slower dissolution rate than the amorphous form” and the “dissolution rate in water” value is listed as “significantly slower dissolution rate than the amorphous form”.
